Laboratory results from US7897602B2, “Indolinone compounds as kinase inhibitors” (Development Center for Biotechnology, priority 2009, dated 2011).

Experiments:
Assay type in all cases: biochemical
VEGFR2 kinase = molecular target: T1, VEGFR2 kinase (Homo sapiens, UniProt P35968); assay: VEGFR2 kinase assay (33P incorporation into Poly(Glu-Tyr)); conditions: 500 nM test compound; read-out: Inhibition at 500 nM (%) VEGFr-2
T1 construct: recombinant N-terminal 6×His-tagged VEGFR2 kinase domain construct expressed by baculovirus; 6xHis (N); made in house
T1 sequence (P35968 834-1162 limits assumed): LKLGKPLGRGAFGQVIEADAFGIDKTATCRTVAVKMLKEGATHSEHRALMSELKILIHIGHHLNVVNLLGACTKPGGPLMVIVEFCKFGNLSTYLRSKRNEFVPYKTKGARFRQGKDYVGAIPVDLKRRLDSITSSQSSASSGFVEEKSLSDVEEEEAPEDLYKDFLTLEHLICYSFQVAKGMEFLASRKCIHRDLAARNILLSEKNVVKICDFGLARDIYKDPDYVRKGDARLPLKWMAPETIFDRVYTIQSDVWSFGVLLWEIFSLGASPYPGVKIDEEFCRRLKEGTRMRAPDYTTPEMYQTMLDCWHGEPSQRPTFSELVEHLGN
Method: Inhibition of VEGFR2 kinase activity by compounds disclosed herein was quantified by measuring the amount of [^33P] incorporated into the substrate in the presence of a test compound. Specifically, a reaction mixture with a final volume of 25 μL and containing 6.25 ng of VEGFR2 kinase (obtained by purifying recombinant N-terminal 6×His-tagged VEGFR2 kinase domain construct expressed by baculovirus), 5 μg of substrate (Poly (Glu-Tyr, 4:1, Sigma)), kinase reaction buffer (20 mM MOPS pH 7.0, 1 mM EDTA, 5% glycerol, 0.01% Brij-35, 0.1% β-mercaptoethanol, 1 mg/mL BSA, 100 μM ATP, 0.1 μCi per well [^33P]-γ-ATP (2,500-3,000 Ci/mmol), and 500 nM test compound (final concentration of DMSO was 4%) or 4% DMSO alone (as the control sample), was incubated at 30° C. for 30 minutes. The reaction was then stopped by adding 5 μL of 3% phosphoric acid solution. The resultant solution was transferred to and harvested by a filter plate (UniFilter-96 GF/B, PerkinElmer). The filter plate was then washed 20 times with d.d. H2O for 5 min followed by the addition of 30 μL of MicroScint™-20 Cocktail (PerkinElmer). After the plate was sealed, the retained radioactivity on the filter was counted using a TopCount scintillation detector (PerkinElmer). The percentage of inhibition rate of the test compound was calculated by dividing the retained radioactivity of the test sample with the retained radioactivity of the control sample and shown in Table 3.

PDGFR-β kinase = molecular target: T2, PDGFR-β kinase (Homo sapiens, UniProt P09619); assay: PDGFR-β kinase assay (33P incorporation into Poly(Glu-Tyr)); conditions: 500 nM test compound
T2 construct: recombinant N-terminal 6×His-tagged PDGFR-β kinase domain construct expressed by baculovirus; 6xHis (N); made in house
T2 sequence (P09619 600-962 limits assumed): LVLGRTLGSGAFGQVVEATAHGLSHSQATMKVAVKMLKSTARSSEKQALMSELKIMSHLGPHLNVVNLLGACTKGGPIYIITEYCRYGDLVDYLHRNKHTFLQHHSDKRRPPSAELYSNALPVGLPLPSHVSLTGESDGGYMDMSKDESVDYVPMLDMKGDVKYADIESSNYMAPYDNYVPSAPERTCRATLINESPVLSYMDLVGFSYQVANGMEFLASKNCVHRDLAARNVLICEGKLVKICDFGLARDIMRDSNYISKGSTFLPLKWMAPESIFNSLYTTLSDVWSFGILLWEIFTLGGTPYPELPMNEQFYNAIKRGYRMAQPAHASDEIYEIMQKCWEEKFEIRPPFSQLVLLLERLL
Method: Inhibition of PDGFR-β kinase activity by compounds disclosed herein was quantified by measuring the amount of [^33P] incorporated into the substrate in the presence of a test compound. Briefly, a reaction mixture of 25 μL final volume containing 55 ng of PDGFR-β kinase (obtained by purifying recombinant N-terminal 6×His-tagged PDGFR-β kinase domain construct expressed by baculovirus), 2.5 μg of the substrate (Poly (Glu-Tyr, 4:1, Sigma)), kinase reaction buffer (20 mM MOPS pH 7.0, 1 mM EDTA, 5% glycerol, 0.01% Brij-35, 0.1% β-mercaptoethanol, 1 mg/mL BSA, 2 mM MnCl2, 30 μM ATP, 0.1 μCi per well [^33P]-γ-ATP (2,500-3,000 Ci/mmol)), and a test compound (500 nM, diluted with 4% DMSO) or DMSO (as the control) was incubated at 30° C. for 30 minutes. The reaction was stopped by adding 5 μL of 3% phosphoric acid solution. The resultant reaction solution was then harvested onto a filter plate (UniFilter-96 GF/B, PerkinElmer), washed 20 times for 5 min with d.d. H2O, and followed by the addition of 30 μL of MicroScint™-20 Cocktail (PerkinElmer). The plate was then sealed and counted using a TopCount scintillation detector (PerkinElmer). The percentage of inhibition rate of the test compound was calculated by dividing the retained radioactivity of the test sample with the retained radioactivity of the control sample and shown in Table 3.

c-Met kinase = molecular target: T3, c-Met kinase (Homo sapiens, UniProt P08581); assay: c-Met kinase assay (33P incorporation into Poly(Glu-Tyr)); conditions: 500 nM test compound
T3 construct: recombinant N-terminal 6×His-tagged c-Met kinase domain construct expressed from baculovirus; 6xHis (N); made in house
T3 sequence (P08581 1078-1345 limits assumed): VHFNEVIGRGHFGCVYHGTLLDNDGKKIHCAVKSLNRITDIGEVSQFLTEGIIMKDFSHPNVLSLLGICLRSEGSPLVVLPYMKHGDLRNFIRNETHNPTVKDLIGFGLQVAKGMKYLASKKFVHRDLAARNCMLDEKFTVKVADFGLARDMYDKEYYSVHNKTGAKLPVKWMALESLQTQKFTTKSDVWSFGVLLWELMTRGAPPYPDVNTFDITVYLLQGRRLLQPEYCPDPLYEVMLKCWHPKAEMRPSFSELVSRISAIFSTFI
Summary of the method: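 Recombinant N-terminal 6×His-tagged c-Met kinase domain (baculovirus-expressed, 5 ng) acted on Poly(Glu-Tyr) 4:1 with 100 μM ATP plus [33P]-γ-ATP in MOPS pH 7.0 buffer, 30 min at 30° C. Compound was at 500 nM. Filter-retained radioactivity was compared with the DMSO control to give percent inhibition.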

SMILES: CCOC(=O)CCc1c(/C=C2\C(=O)Nc3ccc(NC(=O)c4ccc(F)cc4)cc32)[nH]c2c1C(=O)CCC2 [DCB-70074, (Z)-5-(4-fluorobenzamido)-3-((3-(3-ethoxy-3-oxopropyl)-4-oxo-4,5,6,7-tetrahydro-1H-indol-2-yl)methylene)indolin-2-one]
- inhibition at 0.5 µM (VEGFR2 kinase): 25%
- inhibition at 0.5 µM (PDGFR-β kinase): 6.6%
- inhibition at 0.5 µM (c-Met kinase): 21.5%

SMILES: O=C(O)CCc1c(/C=C2\C(=O)Nc3cc(-c4ccc(O)cc4)ccc32)[nH]c2c1C(=O)CCC2 [DCB-70075, (Z)-6-(4-hydroxyphenyl)-3-((3-carboxyethyl-4-oxo-4,5,6,7-tetrahydro-1H-indol-2-yl)methylene)indolin-2-one]
- inhibition at 0.5 µM (VEGFR2 kinase): 99.6%
- inhibition at 0.5 µM (PDGFR-β kinase): 94.1%
- inhibition at 0.5 µM (c-Met kinase): 21.8%

SMILES: O=C(O)CCc1c(/C=C2\C(=O)Nc3ccc(NC(=O)c4ccc(F)cc4)cc32)[nH]c2c1C(=O)CCC2 [DCB-70076, (Z)-5-(4-fluorobenzamido)-3-((3-carboxyethyl-4-oxo-4,5,6,7-tetrahydro-1H-indol-2-yl)methylene)indolin-2-one]
- inhibition at 0.5 µM (VEGFR2 kinase): 59.8%
- inhibition at 0.5 µM (PDGFR-β kinase): 26.9%
- inhibition at 0.5 µM (c-Met kinase): 21.8%

SMILES: CCOC(=O)CCc1c(/C=C2\C(=O)Nc3cc(-c4ccc(O)c(O)c4)ccc32)[nH]c2c1C(=O)CCC2 [DCB-70077, (Z)-6-(3,4-dihydroxyphenyl)-3-((3-(3-ethoxy-3-oxopropyl)-4-oxo-4,5,6,7-tetrahydro-1H-indol-2-yl)methylene)indolin-2-one]
- inhibition at 0.5 µM (VEGFR2 kinase): 89.7%
- inhibition at 0.5 µM (PDGFR-β kinase): 66.3%
- inhibition at 0.5 µM (c-Met kinase): 4.1%

SMILES: O=C(O)CCc1c(/C=C2\C(=O)Nc3cc(-c4ccc(O)c(O)c4)ccc32)[nH]c2c1C(=O)CCC2 [DCB-70078, (Z)-6-(3,4-dihydroxyphenyl)-3-((3-carboxyethyl-4-oxo-4,5,6,7-tetrahydro-1H-indol-2-yl)methylene)indolin-2-one]
- inhibition at 0.5 µM (VEGFR2 kinase): 98.9%
- inhibition at 0.5 µM (PDGFR-β kinase): 85%
- inhibition at 0.5 µM (c-Met kinase): -54.1%

SMILES: CCOC(=O)CCc1c(/C=C2\C(=O)Nc3cc(-c4cc5ccccc5s4)ccc32)[nH]c2c1C(=O)CCC2 [DCB-70079, (Z)-6-(benzo[b]thiophen-2-yl)-3-((3-(3-ethoxy-3-oxopropyl)-4-oxo-4,5,6,7-tetrahydro-1H-indol-2-yl)methylene)indolin-2-one]
- inhibition at 0.5 µM (VEGFR2 kinase): 15.6%
- inhibition at 0.5 µM (PDGFR-β kinase): 9.6%
- inhibition at 0.5 µM (c-Met kinase): 21.4%

SMILES: O=C(O)CCc1c(/C=C2\C(=O)Nc3cc(-c4cc5ccccc5s4)ccc32)[nH]c2c1C(=O)CCC2 [DCB-70080, (Z)-6-(benzo[b]thiophen-2-yl)-3-((3-carboxyethyl-4-oxo-4,5,6,7-tetrahydro-1H-indol-2-yl)methylene)indolin-2-one]
- inhibition at 0.5 µM (VEGFR2 kinase): 76.9%
- inhibition at 0.5 µM (PDGFR-β kinase): 56.7%
- inhibition at 0.5 µM (c-Met kinase): -21.3%

SMILES: CCOC(=O)CCc1c(/C=C2\C(=O)Nc3cc(-c4ccc(O)c(OC)c4)ccc32)[nH]c2c1C(=O)CCC2 [DCB-70081, (Z)-6-(4-hydroxy-3-methoxyphenyl)-3-((3-(3-ethoxy-3-oxopropyl)-4-oxo-4,5,6,7-tetrahydro-1H-indol-2-yl)methylene)indolin-2-one]
- inhibition at 0.5 µM (VEGFR2 kinase): 80%
- inhibition at 0.5 µM (PDGFR-β kinase): 25.2%
- inhibition at 0.5 µM (c-Met kinase): 25.6%

SMILES: COc1cc(-c2ccc3c(c2)NC(=O)/C3=C\c2[nH]c3c(c2CCC(=O)O)C(=O)CCC3)ccc1O [DCB-70082, (Z)-6-(4-hydroxy-3-methoxyphenyl)-3-((3-carboxyethyl-4-oxo-4,5,6,7-tetrahydro-1H-indol-2-yl)methylene)indolin-2-one]
- inhibition at 0.5 µM (VEGFR2 kinase): 95.8%
- inhibition at 0.5 µM (PDGFR-β kinase): 41.4%
- inhibition at 0.5 µM (c-Met kinase): 27.3%

SMILES: CCOC(=O)CCc1c(C=C2C(=S)Nc3ccccc32)[nH]c2c1C(=O)CCC2 [DCB-70083, 3-((3-(3-ethoxy-3-oxopropyl)-4-oxo-4,5,6,7-tetrahydro-1H-indol-2-yl)methylene)indolin-2-thione]
- inhibition at 0.5 µM (VEGFR2 kinase): 23.3%
- inhibition at 0.5 µM (PDGFR-β kinase): 11.6%
- inhibition at 0.5 µM (c-Met kinase): 29.8%
